According to BindingDB's records for patent US12503453 (Dana-Farber Cancer Institute, 2025):

Target: Ubiquitin carboxyl-terminal hydrolase 7 (Homo sapiens, UniProt Q93009)
Test: Ub-AMC Enzymatic and Kinetic Assays
Procedure: Full length USP7 was tested for its activity in Ubiquitin-AMC assay in presence or absence of inhibitors. USP7 (5 nM) was pre-incubated for 6 hours at room temperature with different concentrations of inhibitors or DMSO as a control in 50 mM HEPES pH 7.5, 0.5 mM EDTA, 11 μM ovalbumin, and 5 mM DTT. Ubiquitin-AMC (Boston Biochem) was then added to a final concentration of 500 nM. The initial rate of the reaction was measured by collecting fluorescence data at one minute intervals over 30-minute period using a Clariostar fluorescence plate reader at excitation and emission wavelength of 345 and 445 nm respectively. The calculated initial rate values were plotted against inhibitor concentrations to determine IC50s. All the experimental data were plotted using Prism GraphPad. All assays for each compound were performed at least twice for each compound.

Ubiquitin carboxyl-terminal hydrolase 7, sequence (Q93009 whole entry): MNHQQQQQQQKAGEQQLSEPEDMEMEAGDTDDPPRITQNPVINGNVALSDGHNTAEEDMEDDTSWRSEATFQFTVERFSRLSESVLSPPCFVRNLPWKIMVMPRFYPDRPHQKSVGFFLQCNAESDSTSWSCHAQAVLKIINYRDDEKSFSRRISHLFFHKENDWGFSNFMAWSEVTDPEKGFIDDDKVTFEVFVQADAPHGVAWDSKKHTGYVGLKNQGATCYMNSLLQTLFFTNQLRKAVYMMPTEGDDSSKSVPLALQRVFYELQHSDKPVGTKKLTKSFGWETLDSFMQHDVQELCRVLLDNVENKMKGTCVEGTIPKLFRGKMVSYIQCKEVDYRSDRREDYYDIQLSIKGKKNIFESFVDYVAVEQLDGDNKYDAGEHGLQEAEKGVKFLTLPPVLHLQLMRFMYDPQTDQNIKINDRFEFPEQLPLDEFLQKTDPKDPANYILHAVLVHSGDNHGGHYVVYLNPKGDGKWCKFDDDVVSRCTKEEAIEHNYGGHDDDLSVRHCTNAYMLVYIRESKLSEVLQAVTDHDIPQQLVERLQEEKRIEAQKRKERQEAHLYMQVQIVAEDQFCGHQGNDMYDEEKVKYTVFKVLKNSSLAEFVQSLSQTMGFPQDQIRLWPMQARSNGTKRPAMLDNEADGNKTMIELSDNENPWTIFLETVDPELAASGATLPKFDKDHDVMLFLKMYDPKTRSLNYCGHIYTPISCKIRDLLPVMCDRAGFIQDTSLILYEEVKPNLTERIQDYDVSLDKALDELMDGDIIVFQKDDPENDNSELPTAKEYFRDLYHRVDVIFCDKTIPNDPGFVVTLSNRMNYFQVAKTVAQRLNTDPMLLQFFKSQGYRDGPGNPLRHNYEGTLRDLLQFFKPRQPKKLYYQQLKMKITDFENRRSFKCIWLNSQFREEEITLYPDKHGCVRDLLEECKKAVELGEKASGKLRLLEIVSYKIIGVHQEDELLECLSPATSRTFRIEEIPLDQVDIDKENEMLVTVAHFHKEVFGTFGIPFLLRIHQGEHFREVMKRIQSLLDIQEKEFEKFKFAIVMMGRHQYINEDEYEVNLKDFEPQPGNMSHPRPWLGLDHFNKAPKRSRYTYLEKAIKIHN

Compound: CN1CCN(CCC(=O)Nc2ccc3c(=O)n(CC4(O)CCN(C(=O)C(CCCNC(=O)C5CCN(C#N)C5)Cc5ccccc5)CC4)cnc3c2)CC1 (stereo unspecified) [US12503453, Compound Table1.19]
- IC50: > 1000 nM
